Drawing on ChEMBL document CHEMBL1909046, “DrugMatrix in vitro pharmacology data”, this text covers IC50 and Ki for four molecules.

Test [1] addresses T1, Cholecystokinin receptor type A (Homo sapiens, UniProt P32238).
T1 sequence (P32238 whole entry): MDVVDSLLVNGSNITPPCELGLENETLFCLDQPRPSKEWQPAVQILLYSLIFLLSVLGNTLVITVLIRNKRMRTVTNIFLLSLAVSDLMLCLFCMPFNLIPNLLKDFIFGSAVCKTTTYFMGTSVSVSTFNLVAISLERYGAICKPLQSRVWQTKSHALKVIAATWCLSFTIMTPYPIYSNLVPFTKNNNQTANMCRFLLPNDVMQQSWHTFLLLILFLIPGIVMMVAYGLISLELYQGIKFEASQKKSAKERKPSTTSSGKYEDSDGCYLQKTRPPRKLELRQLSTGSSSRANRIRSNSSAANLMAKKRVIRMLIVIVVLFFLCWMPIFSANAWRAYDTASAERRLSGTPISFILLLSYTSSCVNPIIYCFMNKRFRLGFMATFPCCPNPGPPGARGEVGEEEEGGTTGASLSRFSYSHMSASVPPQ
The format is cell membranes, Membrane. Conditions: 1321-n1.

The target in test [2] is T2, Interstitial collagenase (Homo sapiens, UniProt P03956).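 Also: MMP-1 enzyme inhibition assay using a peptide substrate; in other assays of this panel Not Active means under 50% inhibition at 10 µM.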
T2 sequence (P03956 whole entry): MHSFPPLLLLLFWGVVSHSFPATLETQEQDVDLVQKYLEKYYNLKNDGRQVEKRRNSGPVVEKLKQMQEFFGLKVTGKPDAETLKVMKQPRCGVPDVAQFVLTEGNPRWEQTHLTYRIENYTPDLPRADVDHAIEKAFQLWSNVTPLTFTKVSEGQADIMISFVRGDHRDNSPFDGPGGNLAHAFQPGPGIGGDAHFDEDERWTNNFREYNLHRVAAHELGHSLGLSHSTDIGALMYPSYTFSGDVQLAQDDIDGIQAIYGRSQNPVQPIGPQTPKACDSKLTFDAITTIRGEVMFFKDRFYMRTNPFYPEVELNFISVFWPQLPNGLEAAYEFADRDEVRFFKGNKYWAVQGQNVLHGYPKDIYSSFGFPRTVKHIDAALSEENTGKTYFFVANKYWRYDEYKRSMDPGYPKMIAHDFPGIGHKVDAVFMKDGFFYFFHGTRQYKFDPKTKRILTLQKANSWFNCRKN
Nature of the test: biochemical. Type of test: tissue-based, Rheumatoid synovial fibroblasts.

Test [3] concerns the target Melanocortin receptor 5 (Homo sapiens, UniProt P33032). The format is cell membranes, HEK293, Membrane. Conditions: hek293. Also: in other assays of this panel Not Active means under 50% inhibition at 10 µM.
Test [4] addresses Mitogen-activated protein kinase 14 (Homo sapiens, UniProt Q16539). Further details: species or system Escherichia coli.
Test [5] addresses T3, Angiotensin-converting enzyme (Oryctolagus cuniculus, UniProt P12822).
T3 sequence (P12822 whole entry): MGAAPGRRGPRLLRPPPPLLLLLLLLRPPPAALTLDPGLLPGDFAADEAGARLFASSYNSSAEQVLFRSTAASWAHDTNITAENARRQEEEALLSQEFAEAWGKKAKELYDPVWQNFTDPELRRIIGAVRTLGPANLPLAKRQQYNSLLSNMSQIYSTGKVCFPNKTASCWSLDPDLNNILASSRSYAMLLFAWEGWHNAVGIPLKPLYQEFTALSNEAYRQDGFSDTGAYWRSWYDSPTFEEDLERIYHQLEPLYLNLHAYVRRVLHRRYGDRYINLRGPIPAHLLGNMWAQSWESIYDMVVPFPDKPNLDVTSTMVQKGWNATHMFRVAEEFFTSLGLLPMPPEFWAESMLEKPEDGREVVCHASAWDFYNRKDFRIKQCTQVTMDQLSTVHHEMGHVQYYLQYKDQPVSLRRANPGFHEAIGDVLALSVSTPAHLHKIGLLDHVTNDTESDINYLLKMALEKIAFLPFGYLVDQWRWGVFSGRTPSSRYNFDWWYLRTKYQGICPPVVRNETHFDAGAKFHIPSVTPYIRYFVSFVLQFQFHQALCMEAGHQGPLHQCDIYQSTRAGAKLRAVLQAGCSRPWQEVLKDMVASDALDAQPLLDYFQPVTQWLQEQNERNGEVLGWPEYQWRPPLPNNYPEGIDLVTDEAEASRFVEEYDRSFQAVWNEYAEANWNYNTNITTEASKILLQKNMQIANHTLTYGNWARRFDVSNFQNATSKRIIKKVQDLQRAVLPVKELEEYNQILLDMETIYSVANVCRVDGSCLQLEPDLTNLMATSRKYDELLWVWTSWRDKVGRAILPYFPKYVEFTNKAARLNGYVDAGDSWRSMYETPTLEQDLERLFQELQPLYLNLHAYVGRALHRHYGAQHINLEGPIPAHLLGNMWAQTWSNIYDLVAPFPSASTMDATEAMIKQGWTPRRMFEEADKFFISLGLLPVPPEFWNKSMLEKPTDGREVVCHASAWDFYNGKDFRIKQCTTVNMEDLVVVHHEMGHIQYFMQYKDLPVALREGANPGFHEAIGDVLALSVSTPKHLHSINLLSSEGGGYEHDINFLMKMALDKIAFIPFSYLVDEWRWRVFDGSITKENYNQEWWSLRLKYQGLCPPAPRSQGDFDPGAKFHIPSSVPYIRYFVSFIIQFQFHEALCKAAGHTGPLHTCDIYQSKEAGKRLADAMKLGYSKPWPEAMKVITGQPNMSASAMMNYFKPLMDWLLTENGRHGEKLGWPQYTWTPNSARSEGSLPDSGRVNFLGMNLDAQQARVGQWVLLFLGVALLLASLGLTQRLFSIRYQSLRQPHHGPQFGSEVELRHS
Type of test: tissue-based, Lung.

The target in test [6] is Tyrosine-protein kinase Fyn (Homo sapiens, UniProt P06241). Put plainly: biochemical. The format is cell-based, Insect cells. As to conditions: insect cells.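 Also: enzymatic inhibition of Fyn kinase activity measured with Poly(Glu:Tyr) as the phosphorylation substrate; in other assays of this panel Not Active means under 50% inhibition at 10 µM.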
Tyrosine-protein kinase Fyn, sequence (P06241 whole entry): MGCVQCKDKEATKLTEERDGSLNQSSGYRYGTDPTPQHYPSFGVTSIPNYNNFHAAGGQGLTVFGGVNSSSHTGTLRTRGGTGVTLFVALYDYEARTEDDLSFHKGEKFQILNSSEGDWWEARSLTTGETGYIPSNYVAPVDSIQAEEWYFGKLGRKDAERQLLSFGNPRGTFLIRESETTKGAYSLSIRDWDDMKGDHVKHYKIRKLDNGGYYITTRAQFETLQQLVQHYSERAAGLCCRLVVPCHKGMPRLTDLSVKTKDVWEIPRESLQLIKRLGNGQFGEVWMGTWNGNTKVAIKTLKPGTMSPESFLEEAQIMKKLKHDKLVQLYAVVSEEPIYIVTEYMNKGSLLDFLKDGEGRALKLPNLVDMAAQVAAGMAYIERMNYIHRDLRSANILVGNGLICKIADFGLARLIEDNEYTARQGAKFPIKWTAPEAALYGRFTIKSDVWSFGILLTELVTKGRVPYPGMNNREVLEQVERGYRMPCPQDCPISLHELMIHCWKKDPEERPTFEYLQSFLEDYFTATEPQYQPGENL
Test [7] is described as follows: DRUGMATRIX: Interleukin IL-1 radioligand binding (ligand: [125I] interleukin 1beta). Type of test: cell membranes, Membrane. As to conditions: nih3t3; Not Active = under 50% inhibition at 10 µM.

Mitogen-activated protein kinase 14, sequence (Q16539 whole entry): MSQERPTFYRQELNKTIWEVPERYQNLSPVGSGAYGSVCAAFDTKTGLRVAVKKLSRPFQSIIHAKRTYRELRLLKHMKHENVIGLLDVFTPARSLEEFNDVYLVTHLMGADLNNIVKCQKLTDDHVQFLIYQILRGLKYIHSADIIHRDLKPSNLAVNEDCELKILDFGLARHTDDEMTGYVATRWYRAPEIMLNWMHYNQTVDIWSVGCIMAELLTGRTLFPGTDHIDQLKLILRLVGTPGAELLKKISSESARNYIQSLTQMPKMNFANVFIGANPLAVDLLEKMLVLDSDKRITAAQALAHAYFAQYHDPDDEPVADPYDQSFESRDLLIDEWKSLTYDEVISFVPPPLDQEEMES
Melanocortin receptor 5, sequence (P33032 whole entry): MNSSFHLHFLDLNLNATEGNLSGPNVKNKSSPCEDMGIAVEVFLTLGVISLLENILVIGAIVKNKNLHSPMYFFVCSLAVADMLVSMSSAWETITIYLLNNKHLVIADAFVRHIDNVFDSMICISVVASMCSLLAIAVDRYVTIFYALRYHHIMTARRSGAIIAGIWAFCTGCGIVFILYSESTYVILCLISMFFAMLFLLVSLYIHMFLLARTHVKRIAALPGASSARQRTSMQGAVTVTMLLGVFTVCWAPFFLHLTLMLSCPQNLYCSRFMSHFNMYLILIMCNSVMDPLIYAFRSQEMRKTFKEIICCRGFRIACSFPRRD

As to `CC[C@]1(O)C[C@@H]2CN(CCc3c([nH]c4ccccc34)[C@@](C(=O)OC)(c3cc4c(cc3OC)N(C)[C@H]3[C@@](O)(C(N)=O)[C@H](O)[C@]5(CC)C=CCN6CC[C@]43[C@@H]65)C2)C1` [VINDESINE], the IC50 entry in test [1], in test [2], in test [3], in test [4], in test [5] and in test [6] was “Not Active” in each case. Also, the IC50 result in test [7] is listed as “Not Active”. Further, the Ki result in test [7] was “Not Active”.
As to `CCN(C(C)=O)c1cccc(-c2ccnc3c(C#N)cnn23)c1` [ZALEPLON], the 50% inhibitory concentration (IC50) result in test [1], in test [2], in test [3], in test [4], in test [5] and in test [6] was “Not Active” in each case. In addition, the IC50 entry in test [7] was “Not Active”. The Ki entry in test [7] is recorded as “Not Active”.
COBALTOUS CHLORIDE: the IC50 result in test [1], in test [2], in test [3], in test [4], in test [5] and in test [6] was “Not Active” in each case. Besides, the IC50 entry in test [7] is listed as “Not Active”. The Ki result in test [1], in test [2], in test [3], in test [4], in test [5] and in test [6] was “Not Active” throughout. For the same molecule, the Ki entry in test [7] was “Not Active”.
Consider COLISTIN, for which the IC50 result is “Not Active” in test [1]; “Not Active” in test [2]; 266 nM in test [3] (read-out: IC50); “Not Active” in test [4]; “Not Active” in test [5]; 959 nM in test [6] (read-out: IC50). In test [7], the IC50 result is given as “Not Active”. Further, the Ki entry was “Not Active” in test [1]; “Not Active” in test [2]; 249 nM in test [3] (read-out: Ki); “Not Active” in test [4]; “Not Active” in test [5]; “Not Active” in test [7].

The IC50 is the concentration that inhibits the measured activity by half. As a reminder, the Ki is a dissociation constant, usually derived from enzyme kinetics or from competition with a known ligand.
